From ChEMBL document CHEMBL4507309 (2021)

Assays:
[1] = target: Muscarinic acetylcholine receptor M5 (Homo sapiens) (UniProt P08912); settings: Compound concentration 10.0 uM
[2] = target: T1, GABA-A receptor; anion channel (Rattus norvegicus) (UniProt O09028+P15431+P18506+P18508+P19969+P20236+P23574+P23576+P28471+P28473+P30191+P62813+P63079+P63138+Q91ZM7+Q9ES14); settings: Compound concentration 10.0 uM
[3] = target: 5-hydroxytryptamine receptor 2C (Homo sapiens, UniProt P28335); experiment: GPCRScan assay: inhibition of 5-HT2C; set-up: radioligand conc. used [nm] 1.0 – 2.5, parental cells HEK T
[4] = target: T2, 5-hydroxytryptamine receptor 5A (Homo sapiens, UniProt P47898); experiment: GPCRScan assay: inhibition of 5-HT5A; set-up: radioligand conc. used [nm] 2.0 - 3.3, parental cells Flp-In CHO
[5] = target: Muscarinic acetylcholine receptor M1 (Homo sapiens) (UniProt P11229); settings: Compound concentration 10.0 uM
D(1A) dopamine receptor [6] = target: T3, D(1A) dopamine receptor (Homo sapiens, UniProt P21728); experiment: GPCRScan assay: inhibition of D1; set-up: radioligand conc. used [nm] 0.6 – 1.3, parental cells HEKT
[7] = target: T4, 5-hydroxytryptamine receptor 6 (Homo sapiens, UniProt P50406); settings: Compound concentration 10.0 uM
[8] = target: 5-hydroxytryptamine receptor 2C (Homo sapiens) (UniProt P28335); settings: Compound concentration 10.0 uM
[9] = target: T1, GABA-A receptor; anion channel (Rattus norvegicus); settings: Compound concentration 10.0 uM; remark: listed apart in the source
[10] = target: Beta-3 adrenergic receptor (Homo sapiens) (UniProt P13945); settings: Compound concentration 10.0 uM
[11] = target: Alpha-2B adrenergic receptor (Homo sapiens) (UniProt P18089); settings: Compound concentration 10.0 uM
[12] = target: Glutamate [NMDA] receptor; experiment: (§1) GPCRScan assay: inhibition of NMDA; assay type: protein-complex assay, Homo sapiens; set-up: radioligand conc. used [nm] 1.4 – 13.0
[13] = target: Glutamate [NMDA] receptor (Homo sapiens) (UniProt Q05586+Q12879+Q13224+O15399+O60391+Q14957+Q8TCU5); experiment: as §1; assay type: protein-complex assay; set-up: radioligand conc. used [nm] 1.4 – 13.0; settings: Compound concentration 10.0 uM
[14] = target: Sodium-dependent dopamine transporter (Homo sapiens, UniProt Q01959); experiment: GPCRScan assay: inhibition of DAT; set-up: radioligand conc. used [nm] 3.6 – 16.0, parental cells stable HEK
[15] = target: 5-hydroxytryptamine receptor 3A (Homo sapiens) (UniProt P46098); settings: Compound concentration 10.0 uM
[16] = target: Kappa-type opioid receptor (Homo sapiens, UniProt P41145); settings: Compound concentration 10.0 uM
[17] = target: Sodium-dependent serotonin transporter (Homo sapiens) (UniProt P31645); settings: Compound concentration 10.0 uM
[18] = target: Muscarinic acetylcholine receptor M2 (Homo sapiens) (UniProt P08172); settings: Compound concentration 10.0 uM
[19] = target: T4, 5-hydroxytryptamine receptor 6; experiment: GPCRScan assay: inhibition of 5-HT6; set-up: radioligand conc. used [nm] 2.0 – 4.0, parental cells stable HEK
[20] = target: Alpha-2A adrenergic receptor (Homo sapiens) (UniProt P08913); settings: Compound concentration 10.0 uM
D(1A) dopamine receptor [21] = target: T3, D(1A) dopamine receptor; settings: Compound concentration 10.0 uM
[22] = target: 5-hydroxytryptamine receptor 1B (Homo sapiens, UniProt P28222); settings: Compound concentration 10.0 uM
[23] = target: Alpha-1A adrenergic receptor (Homo sapiens) (UniProt P35348); settings: Compound concentration 10.0 uM
[24] = target: Muscarinic acetylcholine receptor M2 (Homo sapiens, UniProt P08172); experiment: GPCRScan assay: inhibition of M2; set-up: radioligand conc. used [nm] 0.2 – 1.0, parental cells stable CHO
[25] = target: Muscarinic acetylcholine receptor M1 (Homo sapiens, UniProt P11229); experiment: GPCRScan assay: inhibition of M1; set-up: radioligand conc. used [nm] 0.3 – 1.2, parental cells stable CHO
[26] = target: T2, 5-hydroxytryptamine receptor 5A; settings: Compound concentration 10.0 uM
[27] = target: Alpha-2C adrenergic receptor (Homo sapiens) (UniProt P18825); settings: Compound concentration 10.0 uM
[28] = target: Muscarinic acetylcholine receptor M3 (Homo sapiens) (UniProt P20309); settings: Compound concentration 10.0 uM
[29] = target: 5-hydroxytryptamine receptor 1D (Homo sapiens, UniProt P28221); settings: Compound concentration 10.0 uM
[30] = target: Alpha-1D adrenergic receptor (Homo sapiens) (UniProt P25100); settings: Compound concentration 10.0 uM
[31] = target: 5-hydroxytryptamine receptor 2A (Homo sapiens, UniProt P28223); settings: Compound concentration 10.0 uM
[32] = target: 5-hydroxytryptamine receptor 2B (Homo sapiens, UniProt P41595); settings: Compound concentration 10.0 uM
Histamine H1 receptor = Histamine H1 receptor (Homo sapiens, UniProt P35367); settings: Compound concentration 10.0 uM
[33] = target: 5-hydroxytryptamine receptor 3A (Homo sapiens, UniProt P46098); experiment: GPCRScan assay: inhibition of 5-HT3; set-up: radioligand conc. used [nm] 1.0 – 2.0, parental cells HEKT
[34] = target: Sodium-dependent noradrenaline transporter (Homo sapiens) (UniProt P23975); settings: Compound concentration 10.0 uM
Sodium-dependent noradrenaline transporter (Homo sapiens), sequence (P23975 whole entry): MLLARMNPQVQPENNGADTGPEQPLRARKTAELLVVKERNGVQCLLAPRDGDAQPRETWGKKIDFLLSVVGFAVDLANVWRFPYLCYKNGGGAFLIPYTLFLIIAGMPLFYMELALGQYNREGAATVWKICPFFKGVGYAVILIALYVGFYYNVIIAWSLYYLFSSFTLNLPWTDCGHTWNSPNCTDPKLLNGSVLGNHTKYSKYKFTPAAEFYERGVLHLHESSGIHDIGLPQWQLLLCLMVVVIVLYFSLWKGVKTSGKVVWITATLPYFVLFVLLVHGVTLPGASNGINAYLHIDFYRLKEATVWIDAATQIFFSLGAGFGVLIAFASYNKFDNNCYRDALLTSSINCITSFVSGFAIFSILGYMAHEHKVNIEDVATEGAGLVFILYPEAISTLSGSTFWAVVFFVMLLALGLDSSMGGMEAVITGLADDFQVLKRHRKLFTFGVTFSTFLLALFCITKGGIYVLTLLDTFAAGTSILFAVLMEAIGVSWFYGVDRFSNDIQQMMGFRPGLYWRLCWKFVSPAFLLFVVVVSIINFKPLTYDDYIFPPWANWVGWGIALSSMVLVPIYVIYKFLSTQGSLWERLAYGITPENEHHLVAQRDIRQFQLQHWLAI

T2 sequence (P47898 whole entry): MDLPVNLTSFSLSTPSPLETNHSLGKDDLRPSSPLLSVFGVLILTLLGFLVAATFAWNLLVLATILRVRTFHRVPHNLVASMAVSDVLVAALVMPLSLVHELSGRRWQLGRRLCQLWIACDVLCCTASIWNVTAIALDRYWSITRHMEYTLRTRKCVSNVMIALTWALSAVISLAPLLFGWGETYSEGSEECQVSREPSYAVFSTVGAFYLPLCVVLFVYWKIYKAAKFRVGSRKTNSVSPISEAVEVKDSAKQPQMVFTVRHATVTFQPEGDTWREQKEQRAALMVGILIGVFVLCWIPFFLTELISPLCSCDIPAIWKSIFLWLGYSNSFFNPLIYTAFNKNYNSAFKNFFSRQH
Sodium-dependent dopamine transporter, sequence (Q01959 whole entry): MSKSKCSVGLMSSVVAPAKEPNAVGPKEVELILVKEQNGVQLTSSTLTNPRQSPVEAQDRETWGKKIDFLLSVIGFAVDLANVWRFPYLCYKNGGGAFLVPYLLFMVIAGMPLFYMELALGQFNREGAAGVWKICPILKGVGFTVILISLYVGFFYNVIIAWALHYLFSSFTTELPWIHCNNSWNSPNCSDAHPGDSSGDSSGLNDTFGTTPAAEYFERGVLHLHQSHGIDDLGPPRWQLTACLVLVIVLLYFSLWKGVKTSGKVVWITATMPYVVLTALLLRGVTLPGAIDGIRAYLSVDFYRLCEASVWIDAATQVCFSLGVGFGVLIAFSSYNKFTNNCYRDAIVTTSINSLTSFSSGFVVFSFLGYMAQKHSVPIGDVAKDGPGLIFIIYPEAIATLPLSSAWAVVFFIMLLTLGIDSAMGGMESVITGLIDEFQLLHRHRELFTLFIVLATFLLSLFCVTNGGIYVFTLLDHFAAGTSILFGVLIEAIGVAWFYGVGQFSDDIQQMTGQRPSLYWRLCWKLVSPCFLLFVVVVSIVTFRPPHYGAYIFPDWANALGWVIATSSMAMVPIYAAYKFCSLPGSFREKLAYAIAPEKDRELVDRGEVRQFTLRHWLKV
T4 sequence (P50406 whole entry): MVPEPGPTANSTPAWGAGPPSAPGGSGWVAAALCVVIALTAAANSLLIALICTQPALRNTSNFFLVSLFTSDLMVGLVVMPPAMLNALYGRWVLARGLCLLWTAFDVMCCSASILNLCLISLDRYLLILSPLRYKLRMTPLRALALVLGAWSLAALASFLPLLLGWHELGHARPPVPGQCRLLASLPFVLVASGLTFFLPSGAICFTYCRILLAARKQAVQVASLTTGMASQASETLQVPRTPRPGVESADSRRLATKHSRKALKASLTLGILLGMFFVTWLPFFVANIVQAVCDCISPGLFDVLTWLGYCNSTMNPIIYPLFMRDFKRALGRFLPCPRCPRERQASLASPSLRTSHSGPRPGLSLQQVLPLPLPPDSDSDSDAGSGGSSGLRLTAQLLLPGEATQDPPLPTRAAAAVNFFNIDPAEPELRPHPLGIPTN
T3 sequence (P21728 whole entry): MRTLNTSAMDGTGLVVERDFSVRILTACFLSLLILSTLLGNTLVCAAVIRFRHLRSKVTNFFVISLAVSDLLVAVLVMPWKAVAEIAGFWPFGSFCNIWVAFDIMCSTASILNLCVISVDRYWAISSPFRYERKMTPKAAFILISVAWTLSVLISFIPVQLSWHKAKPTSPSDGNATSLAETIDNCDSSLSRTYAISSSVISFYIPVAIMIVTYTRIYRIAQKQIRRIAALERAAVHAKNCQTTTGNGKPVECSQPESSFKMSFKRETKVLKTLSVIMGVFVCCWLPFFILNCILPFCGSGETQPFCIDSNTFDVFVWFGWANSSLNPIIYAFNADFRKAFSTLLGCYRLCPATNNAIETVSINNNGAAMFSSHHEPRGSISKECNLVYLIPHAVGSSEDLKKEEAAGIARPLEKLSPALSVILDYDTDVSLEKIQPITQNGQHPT
5-hydroxytryptamine receptor 3A, sequence (P46098 whole entry): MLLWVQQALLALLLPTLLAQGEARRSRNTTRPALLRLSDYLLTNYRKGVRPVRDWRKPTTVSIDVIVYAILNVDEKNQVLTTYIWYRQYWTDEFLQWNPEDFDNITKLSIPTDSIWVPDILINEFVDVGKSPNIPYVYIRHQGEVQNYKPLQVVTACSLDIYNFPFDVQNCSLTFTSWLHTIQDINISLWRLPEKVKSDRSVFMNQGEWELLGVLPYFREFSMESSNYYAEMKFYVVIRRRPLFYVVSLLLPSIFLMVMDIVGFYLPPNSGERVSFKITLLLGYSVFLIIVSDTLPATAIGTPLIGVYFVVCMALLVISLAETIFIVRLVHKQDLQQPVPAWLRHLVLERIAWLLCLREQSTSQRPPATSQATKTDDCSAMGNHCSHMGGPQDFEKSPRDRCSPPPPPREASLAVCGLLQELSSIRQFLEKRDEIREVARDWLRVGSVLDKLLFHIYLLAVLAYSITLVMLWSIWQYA
Muscarinic acetylcholine receptor M5 (Homo sapiens), sequence (P08912 whole entry): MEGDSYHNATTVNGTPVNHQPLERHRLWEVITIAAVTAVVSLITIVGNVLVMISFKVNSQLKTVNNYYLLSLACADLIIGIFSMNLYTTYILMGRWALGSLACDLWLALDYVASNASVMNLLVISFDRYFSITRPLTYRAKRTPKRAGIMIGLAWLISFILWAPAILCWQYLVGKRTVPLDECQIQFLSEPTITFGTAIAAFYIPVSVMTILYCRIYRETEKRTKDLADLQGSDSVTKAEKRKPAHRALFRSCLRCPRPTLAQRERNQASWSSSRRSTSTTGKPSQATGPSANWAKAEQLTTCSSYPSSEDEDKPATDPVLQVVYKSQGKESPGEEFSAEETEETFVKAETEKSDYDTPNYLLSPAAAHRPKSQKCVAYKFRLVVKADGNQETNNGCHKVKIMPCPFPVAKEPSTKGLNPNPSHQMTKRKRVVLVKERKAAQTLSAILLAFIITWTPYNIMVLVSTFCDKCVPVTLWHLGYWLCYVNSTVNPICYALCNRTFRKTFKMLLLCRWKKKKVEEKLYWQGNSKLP
5-hydroxytryptamine receptor 2A, sequence (P28223 whole entry): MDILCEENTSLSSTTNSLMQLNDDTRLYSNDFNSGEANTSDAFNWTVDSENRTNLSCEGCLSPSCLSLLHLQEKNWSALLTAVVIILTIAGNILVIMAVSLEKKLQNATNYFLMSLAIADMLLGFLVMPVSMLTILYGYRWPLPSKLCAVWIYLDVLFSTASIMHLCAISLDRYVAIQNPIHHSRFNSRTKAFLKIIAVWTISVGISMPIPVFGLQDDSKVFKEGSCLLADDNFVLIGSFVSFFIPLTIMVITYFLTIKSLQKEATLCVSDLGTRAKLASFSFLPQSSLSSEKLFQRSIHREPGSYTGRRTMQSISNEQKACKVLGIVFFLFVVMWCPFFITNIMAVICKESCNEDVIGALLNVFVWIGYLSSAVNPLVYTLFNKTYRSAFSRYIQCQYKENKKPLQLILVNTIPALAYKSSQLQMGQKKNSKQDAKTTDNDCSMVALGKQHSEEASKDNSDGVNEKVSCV
Beta-3 adrenergic receptor (Homo sapiens), sequence (P13945 whole entry, looked up): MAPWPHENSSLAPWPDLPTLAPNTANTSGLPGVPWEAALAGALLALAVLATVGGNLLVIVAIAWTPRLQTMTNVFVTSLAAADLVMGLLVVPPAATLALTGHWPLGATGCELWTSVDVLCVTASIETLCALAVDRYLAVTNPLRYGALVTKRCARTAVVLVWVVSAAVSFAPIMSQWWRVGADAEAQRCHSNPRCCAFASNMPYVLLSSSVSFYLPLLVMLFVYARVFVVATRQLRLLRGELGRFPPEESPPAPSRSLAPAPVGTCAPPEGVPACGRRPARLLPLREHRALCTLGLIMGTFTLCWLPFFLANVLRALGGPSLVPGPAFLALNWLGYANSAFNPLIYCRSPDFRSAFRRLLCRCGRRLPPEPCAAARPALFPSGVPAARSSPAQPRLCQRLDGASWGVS
Alpha-2B adrenergic receptor (Homo sapiens), sequence (P18089 whole entry): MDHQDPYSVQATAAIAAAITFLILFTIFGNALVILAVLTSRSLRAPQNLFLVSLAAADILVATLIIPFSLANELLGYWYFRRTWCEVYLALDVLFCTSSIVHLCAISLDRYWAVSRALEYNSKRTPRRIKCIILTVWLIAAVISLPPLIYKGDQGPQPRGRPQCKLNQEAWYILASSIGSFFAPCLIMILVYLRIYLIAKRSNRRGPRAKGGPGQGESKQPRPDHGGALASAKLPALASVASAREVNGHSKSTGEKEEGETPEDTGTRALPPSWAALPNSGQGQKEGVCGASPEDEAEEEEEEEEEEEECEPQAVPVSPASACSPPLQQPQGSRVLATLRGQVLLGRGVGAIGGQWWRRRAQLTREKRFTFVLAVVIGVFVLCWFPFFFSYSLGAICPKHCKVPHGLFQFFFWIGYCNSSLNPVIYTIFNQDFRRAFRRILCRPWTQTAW
5-hydroxytryptamine receptor 3A (Homo sapiens), sequence (P46098 whole entry): as the sequence (P46098 whole entry) above

SMILES: Cc1ccc2nc(CNCCCOc3ccccc3)cc(O)c2c1 [UCSF924]
- inhibition [1]: 15.5%
- inhibition [2]: 1.68%
- Ki [3]: 5.55 µM
- Ki ([4]; read-out: Ki): 5.82 µM
- Ki ([4]; read-out: pKi (converted)): 5.62 µM
- inhibition [5]: 12.4%
- Ki (D(1A) dopamine receptor [6]): 3.42 µM
- inhibition [7]: 23%
- inhibition [8]: 31.7%
- inhibition [9]: 4.11%
- inhibition [10]: 11.6%
- inhibition [11]: 21.8%
- Ki [12]: 1 µM
- inhibition [13]: 0%
- Ki ([14]; read-out: Ki): 2.12 µM
- Ki ([14]; read-out: pKi (converted)): 1.62 µM
- inhibition [15]: 55%
- inhibition [16]: 48.4%
- inhibition [17]: 35.4%
- inhibition [18]: 22%
- Ki [19]: 6.68 µM
- inhibition [20]: 17.6%
- inhibition (D(1A) dopamine receptor [21]): 3.15%
- inhibition [22]: 17.7%
- inhibition [23]: 23%
- Ki [24]: 4.43 µM
- Ki [25]: 4.05 µM
- inhibition [26]: 28.8%
- inhibition [27]: 44.7%
- inhibition [28]: -3.52%
- inhibition [29]: 58.6%
- inhibition [30]: 25.4%
- inhibition [31]: 19.9%
- inhibition [32]: 80%
- inhibition (Histamine H1 receptor): 25.5%
- Ki ([33]; read-out: Ki): 3.99 µM
- Ki ([33]; read-out: pKi (converted)): 3.72 µM
- inhibition [34]: 26.2%
